One series relates to Caco-2. The series is described as follows: Cytotoxicity against human Caco-2 cells assessed as reduction in cell viability at 10 to 100 uM incubated for 48 hrs by MTT assay. Type of series: toxicity, cell-based. The following applies: caco-2, 48 h, dose 10-100 µM.
Series [1] deals with RAW264.7. The series is described as follows: Antiinflammatory activity in mouse RAW264.7 cells assessed as inhibition of LPS-induced NO production incubated for 20 hrs by Griess reagent based assay. In kind it is functional, cell-based. Particulars: dose 10-100 µM, DDE = dose-dependent effect. For orientation: Nitrite, measured by Griess reagent, commonly stands in for NO production.

Series [2] has as its system RAW264.7. The series is described as follows: Cytotoxicity against LPS-stimulated mouse RAW264.7 cells assessed as reduction in cell viability at 10 to 100 uM incubated for 20 hrs by MTT assay. In kind it is toxicity, cell-based. Particulars: raw264.7, 20 h, dose 10-100 µM. (In general: Tetrazolium dyes change colour on reduction, which living cells bring about.)
The test system of series [3] is RAW264.7. The series is described as follows: Antiinflammatory activity in mouse RAW264.7 cells assessed as inhibition of LPS-induced NO production at 100 uM incubated for 20 hrs by Griess reagent based assay relative to control. Type of series: functional.

Each structure is given as a SMILES string.

For the compound `C[C@H]1CC[C@H](CO)C(CO)=C2[C@H]1CC(C)(C)[C@@H]2O`, the Activity entry in the series with Caco-2 is “Non-Toxic”; in the series with RAW264.7 [1] it was “Dde”; in the series on RAW264.7 [2], “Non-Toxic”.
Regarding `CC1=C2C[C@@](C)(C(=O)O)C[C@H]2C[C@]2(CO)CC[C@]12O`, the Activity result with Caco-2 is “Non-Toxic”; in the series with RAW264.7 [1], “Dde”; in the series with RAW264.7 [2] it was “Non-Toxic”.
For orientation: inhibition means the drop in the measured response relative to a control, in per cent. Regarding `CC1=C(CO)[C@H](C)C[C@@H]2C[C@](C)(C(=O)O)C=C12`, the Activity result was “Non-Toxic” with Caco-2, “Dde” with RAW264.7 [1] and “Non-Toxic” in the series on RAW264.7 [2]. For the same compound, the inhibition at 100 µM with RAW264.7 [3] is 34.8%.
In the case of `CC1=C2C[C@@](C)(C(=O)O)C[C@H]2C[C@]2(C)CC[C@]12O`, the Activity result in the series on Caco-2 was “Non-Toxic”; in the series on RAW264.7 [1] it was “Dde”; with RAW264.7 [2], “Non-Toxic”.
`C[C@H]1CC[C@H](CO)[C@H](CO)C2=C[C@](C)(CO)C[C@H]21`: the Activity result in the series on Caco-2 was “Non-Toxic”; in the series on RAW264.7 [1], “Dde”; in the series with RAW264.7 [2], “Non-Toxic”. Also, the inhibition at 100 µM in the series with RAW264.7 [3] was found to be 38%.
With `CC1=C2C[C@@](C)(C(=O)O)C[C@H]2C[C@]2(C)C[C@H](O)[C@]12O`, the Activity result with Caco-2 was “Non-Toxic”; in the series with RAW264.7 [1], “Dde”; in the series on RAW264.7 [2] it was “Non-Toxic”. Also, the inhibition at 100 µM in the series on RAW264.7 [3] came out at 36.4%.
Turning to `CC1=C2C[C@@](C)(C(=O)O)C[C@H]2C[C@@H](CO)C12CC2`, the Activity entry was “Non-Toxic” with Caco-2, “Dde” in the series on RAW264.7 [1] and “Non-Toxic” in the series on RAW264.7 [2].

(Values after ChEMBL document CHEMBL5143573, “Cyclohumulanoid Sesquiterpenes Induced by the Noncompetitive Coculture of Phellinus orientoasiaticus and Xylodon flaviporus” (J Nat Prod, 2022).)
